In patent US20080096967A1, “Formulations for Injection of Catecholic Butanes, Including Ndga Compounds, Into Animals” (priority 2005, published 2008):

Tests used:
[1] = system: Sprague-Dawley rats; assay: 8-Day IV infusion toxicity study in Sprague-Dawley rats; assay type: in vivo
Procedure: Escalating doses of 0, 100, 150, or 200 mg/kg M4N in 10% HP-β-CD in PEG 300 (6.25 mg/mL) were administered by IV infusion once every four days to male and female Sprague-Dawley rats (3/each sex) at 8 mL/kg/hr. […] […] One male rat was found dead on the first day dosage during administration of the vehicle and one female rat was found dead on day 5 of the study at the end of the infusion of 100 mg/kg of the test material. These deaths were not considered related to the test article because for one rat no test article (only vehicle) was administered and for the other rat, this was a single event with other rats surviving multiple days of dosing at 200 mg/kg/day.

[2] = system: Beagle dogs; assay: Intravenous infusion toxicity study (maximum tolerable dose, escalating doses) in Beagle dogs; assay type: in vivo
Procedure: The purpose of this study was to determine the maximum tolerable dose of tetra-O-methyl NDGA (M4N) when administered by intravenous infusion to male and female Beagle dogs, supplied by Convince Research Products (Cumberland, Va., U.S.A). Two Beagle dogs, one male and one female, about 6 to 9 months old at first dose, were administered the cyclodextrin vehicle containing 20% (w/v) HP-β-CD and 50% PEG 300, on Study Day (“SD”) 1, followed by escalating levels of M4N prepared in the cyclodextrin vehicle (i.e., the test articles). The preformed cyclodextrin vehicle and test articles were stored at room temperature. Sterile water, used as diluent, was obtained from Baxter Health Care Corp. (Deerfield, Mich., U.S.A) or Abbott Laboratories (North Chicago, Ill., U.S.A.) and stored at room temperature.
The test article, cyclodextrin vehicle and diluent were considered 100% pure for formulation purposes. Dose formulations were prepared on each day of dosing by adding the appropriate amount of test article or cyclodextrin vehicle into a glass container using a sterile syringe. For each dose, an equal amount of sterile water was added to the M4N formulation or cyclodextrin vehicle to form a 50:50 (v/v) dilution. No dilution was required for the 200 mg/kg dose. All formulations were mixed by gentle inversion to ensure that a proper solution was formed. Formulations were loaded into medication cassettes and stored at room temperature until needed.
M4N was administered at 25 mg/kg on SD 3, 50 mg/kg on SD 5, and 100 mg/kg on SD 8. Only the female received the full 100 mg/kg dose; due to mechanical malfunctions caused by precipitation in the infusion line, the male dog received approximately 72 mg/kg (i.e., 72%) of the intended dose. Two additional Beagle dogs were administered a 200 mg/kg dose; however, mechanical difficulties ensued and the male dog received approximately 180 mg/kg (90%) of the intended dose, whereas the amount the female received could not be determined.
Using aseptic surgical techniques, the animals were catheterized with an in-dwelling catheter inserted into the jugular vein, and were treated prophylactically with an analgesic and antibiotic on the day of surgery and with antibiotics and/or analgesics for 8 days following surgery.
Following completion of each intravenous infusion, 1 mL of sterile saline was administered as a slow bolus injection to flush the test material from the infusion line into the animal, followed by an injection of heparin-saline solution to fill the infusion line to maintain patency. The animals were observed. Cageside observation included observation for mortality, morbundity, general health, and signs of toxicity. […]

[3] = 200 mg/kg/day, continued daily dosing phase

Question: `COc1ccc(C[C@@H](C)[C@@H](C)Cc2ccc(OC)c(OC)c2)cc1OC` [Formulation M4N, meso-1,4-bis(3,4-dimethoxyphenyl)-2,3-dimethylbutane] was tested. Which “clinical observations: ptosis and hyperactivity” value [1, 3] did it give?
Answer: The value was “ptosis and hyperactivity occurred in one male and one female rat”.

Question: And the “clinical observations: tremors” value [1, 3]?
Answer: Its value is “tremors did occur in one male and one female rat”.

Question: And the mortality ([1]; 100, 150 or 200 mg/kg M4N in 10% HP-β-CD in PEG 300 (6.25 mg/mL), IV infusion 8 mL/kg/hr)?
Answer: Its mortality is “No obvious mortality related to M4N occurred”.

Question: What about the “doses that appeared to be tolerated” value ([1]; for up to eight consecutive days) of the same compound?
Answer: Its value is no more than 200 mg/kg/day.

Question: And the body weight ([1]; male and female rats)?
Answer: The body weight was “gained weight throughout the study”.

Question: What about the “Individual Body Weights” value ([2]; Male dog 10567, SD13) of the same compound?
Answer: Its value is 10.2 kg.

Question: And the “gross pathology and microscopic changes” value ([2]; dog, in vivo)?
Answer: The value was “no test-article related gross pathology findings or microscopic changes”.

Question: And the “doses at which no treatment-related adverse effects were observed” value ([2]; dog, in vivo, iv)?
Answer: The value was “up to 200 mg/kg”.

Question: And the mortality ([2]; escalating IV infusion doses 25 to 200 mg/kg in 20% HP-β-CD/50% PEG 300 vehicle)?
Answer: Its mortality is “no effect”.
